Measurements: patent US9212209B2, “Screening methods for spinal muscular atrophy” (Indiana University Research and Technology Corporation, priority 2012, dated 2015)
In brackets after ≈: the same amount, converted by molar mass. Several values for one entry are separate records, joined by “and”; a condition that tells them apart may be missing. Identical values can stand only once. Like-named read-outs stand apart in the source and are kept apart here.

What was measured:
SMN2-luciferase reporter [1] = experiment: SMN2-luciferase reporter assay (clonal HEK-293 SMN2-luc cells); type: cell-based, human; set-up: increase of luciferase activity: dose or concentration left out as unconfirmed; conditions: for Na-But RLU ave: 0.5 mg/mL sodium butyrate; for Emax: read-out: Max % Activity; for Active: reporter assay; for S/B: 0.5 mg/mL sodium butyrate vs DMSO
SMN2-luciferase reporter [2] = experiment: as above; type: cell-based, human; conditions: for S/B: 0.5 mg/mL sodium butyrate vs DMSO
[3] = Solubility in PBS / aqueous solution; type: physicochemical
SMA mice = experiment: SMA mice, intraperitoneal dosing: lifespan, weight, time to right; type: in vivo, mouse; conditions: for lifespan / weight of the treated animals: words; for Time to right: individual pup, raw data
Procedure: The animal studies included new derivatives of LDN-76070 and LDN-75654. Mice were injected intraperitoneally once daily from post-natal day 1-10. […] Compounds LDN-212014, LDN-212016, LDN-212351, and LDN-212391 were injected into a cohort of animals (3-4 each). […] In the Kaplan-Meier curve that DMSO control decreased survival by 50%—the compounds were in […] (FIG. 26A).
LDN-212014 and LDN-76070 were further tested in A7 SMA model mice. Mice were dosed using compounds dissolved in 100% DMSO injected at 20 mg/kg with each dose administered once daily by intraperitoneal injection. As shown in the black curves in the Kaplan-Meier plot, control animals lived 4-5 days longer than the DMSO vehicle treated animals, indicating toxicity. […] In fact, the compounds display a statistically significant increase in survival compared with the untreated animals. These compounds extend the lifespan of SMA mice despite the DMSO toxicity.
In ‘time to right’ experiments, animals are placed on their backs and the duration for animals to right themselves is recorded. Animals that are unable to right in less than 30 seconds are scored as a failure. DMSO treated animals were unable to right themselves, while a small percentage of untreated animals display the ability to right themselves for up to postnatal day (PND) 11. A larger percentage of treated animals can right themselves past PND 17, and in the case of one animal as late as PND 21.

[4] = Liver microsome stability; conditions: for Stabilityin liver microsomes: Table 8; for Stability: Table 9
[5] = system: SMN-luciferase transcripts; experiment: qRT-PCR of SMN-luciferase transcripts in SMN2-luc cells; type: cell-based, human; conditions: 24 hours, relative to DMSO, normalized to GAPDH, aclarubicin at 300 nM, words
Procedure: Compounds were tested at three concentrations that display maximal activity in the luciferase assay. Cells were treated as described above for the luciferase assay. Cells were harvested by trypsinization, neutralized with trypsin inhibitor, and washed. RNA was isolated from the cells using TRIZOL Reagent (Invitrogen 15596-026). cDNA was generated using the IMPROM-II Reverse Transcription System (Promega A3801).
The forward primer pair recognizes the exon 5-6 junction, which includes a restriction site that was engineered into the reporter and will exclude amplification of endogenous SMN mRNA. The reverse primers recognize either exon 7 or luciferase for detection of full-length or total SMN-luciferase transcripts respectively. For a reference control, cDNA from the housekeeping gene glyceraldehyde-3-phosphate dehydrogenase (GAPDH) was amplified. The primers used include SMN exon5-forward ([…]) (SEQ ID NO: 3), luciferase-reverse ([…]) (SEQ ID NO: 4), exon7-reverse ([…]) (SEQ ID NO: 5), GAPDH-reverse (G3A) ([…]) (SEQ ID NO: 6) and GAPDH-forward (G3S) ([…]) (SEQ ID NO: 7). qPCR was performed as described in the protocol for iQ SYBRGREEN SUPERMIX (Biorad 170-8882) using an EPPENDORF Mastercycler ep realplex^4 Thermo Cycler. Reactions were incubated for a 10 minute, 94° C. hot start followed by 45 cycles of the following: 94° C. for 45 second, 60° C. for 15 seconds, 72° C. for 45 seconds. Melting curves for each reaction were obtained. Each sample was assayed in triplicate and every plate contained a 5-point cDNA dilution course to calculate amplification efficiency for each primer pair. The Pfaffl method was used to determine the change in transcript levels relative to the DMSO and normalized to GAPDH (Pfaffl, M. W., “A new mathematical model for relative quantification in real-time RT-PCR,” Nucleic Acids Res 2001, 29(9), 3e45).
Based on the new reporter design, it was predicted that this screen could detect increased SMN-luciferase protein levels caused by compounds that stimulate SMN2 transcription, exon 7 inclusion, or by increasing the half-life of the SMN mRNA or protein. Quantitative reverse transcriptase PCR (qRT-PCR) was used to analyze SMN-luciferase mRNAs. All assays used RNA from control and compound-treated SMN2-luc cells and primers pairs were chosen to amplify only the SMN-luciferase derived transcripts (FIG. 4A). A pair of primers were used that specifically detects both full-length (exon 7 included) and Δ7 (exon 7 excluded) SMN-luciferase transcripts (primers 1 and 3). To measure changes in exon 7 splicing efficiency, a primer pair was used that detects only the full-length (exon 7 included) SMN-luciferase transcript (primers 1 and 2).
For each sample, the percent increase in the amount of total SMN-luciferase transcripts (gray bar) and exon 7 included full-length SMN-luciferase transcripts (white bar) was plotted (FIG. 4). Compounds that increase transcription should show increased total SMN-luciferase transcripts (gray bar) with a proportional increase for exon 7 included transcripts (white bar), assuming that proper splicing of exon 7 is not rate limiting. Compounds that stimulate exon 7 inclusion should increase the amount of exon 7 included full-length transcript (white bar) detected with little to no change in the expression of total SMN-luciferase transcripts (gray bar). In these experiments, cells were treated with compound, harvested, and each cell pellet was divided for isolation of RNA and to assay luciferase activity. Each qRT-PCR sample was normalized to the housekeeping gene glyceraldehyde-3-phosphate dehydrogenase (GAPDH). The Pfaffl method was used to calculate the change in the amount of total SMN mRNA and determine whether compound treatments increased SMN transcripts.

[6] = 96-well validation, 25,000 cells per well, 24 hrs
[7] = 96-well validation, 25,000 cells per well, 48 hrs
[8] = 96-well validation, 50,000 cells per well, 24 hrs
[9] = 96-well validation, 50,000 cells per well, 48 hrs
[10] = 384-well LDDN screen, 10,000 cells per well, 24 hrs
[11] = 384-well validation, 5,000 cells per well, 24 hrs
[12] = 384-well validation, 10,000 cells per well, 24 hrs
[13] = Homo sapiens, HEK293, reporter assay, Table 6, read-out: Ec50
[14] = Homo sapiens, HEK293, reporter assay, Table 6
[15] = IP once daily post-natal day 1-10, compounds in 20% DMSO, 3-4 animals each
[16] = IP once daily post-natal day 1-10, compounds in 20% DMSO

CCCC(=O)[O-].[Na+] [Na-But]
Na-But RLU ave (SMN2-luciferase reporter [1]; [6]): 2046 RLU | Na-But RLU ave (SMN2-luciferase reporter [1]; [7]): 3696 RLU | Na-But RLU ave (SMN2-luciferase reporter [1]; [8]): 4798 RLU | Na-But RLU ave (SMN2-luciferase reporter [1]; [9]): 7505 RLU | Na-But RLU ave (SMN2-luciferase reporter [1]; [10]): 13894 RLU | Na-But RLU ave (SMN2-luciferase reporter [1]; [11]): 1332 RLU | Na-But RLU ave (SMN2-luciferase reporter [1]; [12]): 39287 RLU | Na-But RLU ave (SMN2-luciferase reporter [2]; 0.5 mg/mL sodium butyrate, 384-well validation, 7,500 cells per well, 24 hrs): 2832 RLU

CC(C)c1cc(C(=O)Nc2nc3ccccc3[nH]2)no1 [LDN-212016]
EC50 (SMN2-luciferase reporter [1]; Homo sapiens, HEK293, Table 7, read-out: EC50): 300 nM | EC50 (SMN2-luciferase reporter [1]; [13]): 300 nM | Emax (SMN2-luciferase reporter [1]; [14]): 250% | Maximum % activation (SMN2-luciferase reporter [1]; Table 7): 162.4 ± 62.4% | Active (SMN2-luciferase reporter [1]; Table 6): Yes | solubility ([3]; PBS, aqueous buffer, read-out: Maximal solubility in PBS): 500 µM (≈ 135 µg/mL) | solubility ([3]; aqueous solution, Table 8, grades, read-out: Solubility in aqueous solution): < 500 µM | lifespan (SMA mice; [15]): extension of lifespan | weight of the treated animals (SMA mice; [16]): increased | Time to right (SMA mice; PND 6): Fail (Fail = >30 sec) | Time to right (SMA mice; PND 7): Fail (Fail = >30 sec) (3×) and 25 seconds | Time to right (SMA mice; PND 8): Fail (Fail = >30 sec) | Time to right (SMA mice; PND 9): Fail (Fail = >30 sec) | Time to right (SMA mice; PND 10): Fail (Fail = >30 sec) (3×) and 12 seconds | Time to right (SMA mice; PND 11): Fail (Fail = >30 sec) (3×) and 9 seconds | Time to right (SMA mice; PND 12): Fail (Fail = >30 sec) | Time to right (SMA mice; PND 13): dead and Fail (Fail = >30 sec) (2×) and 11 seconds | Time to right (SMA mice; PND 14): dead (2×) and Fail (Fail = >30 sec) (2×) | Time to right (SMA mice; PND 15): dead (3×) and Fail (Fail = >30 sec) | Time to right (SMA mice; PND 16): dead (3×) and Fail (Fail = >30 sec) | Time to right (SMA mice; PND 17): dead (3×) and Fail (Fail = >30 sec) | Time to right (SMA mice; PND 18): dead | Time to right (SMA mice; PND 19): dead | Time to right (SMA mice; PND 20): dead | Stabilityin liver microsomes [4]: 3 min | Stability [4]: 3 min

CCCC(=O)[O-].[Na+] [sodium butyrate, reference compound]
S/B (SMN2-luciferase reporter [1]; [6]): 3.0 | S/B (SMN2-luciferase reporter [1]; [8]): 3.5 | S/B (SMN2-luciferase reporter [1]; [9]): 2.9 | S/B (SMN2-luciferase reporter [1]; [11]): 2.6 | S/B (SMN2-luciferase reporter [1]; [12]): 4.9 | increase of luciferase activity (SMN2-luciferase reporter [1]; 96-well format, sodium butyrate): more than 3 fold | EC50 (SMN2-luciferase reporter [1]; Homo sapiens, HEK293): 1000 µg/mL | Max. fold increase (SMN2-luciferase reporter [1]; cell-based reporter response to known SMN2 modulating compounds): 10 fold | exon 7 included full-length SMN-luciferase transcripts [5]: increased | total SMN-luciferase transcripts [5]: increased | S/B (SMN2-luciferase reporter [2]; [7]): 2.6 | S/B (SMN2-luciferase reporter [2]; [10]): 3.0 | S/B (SMN2-luciferase reporter [2]; 384-well validation, 7,500 cells per well, 24 hrs): 2.8

O=C(Nc1ncc(C2(O)CCC2)s1)c1ccc(F)c(Cl)c1 [LDN-212014]
EC50 (SMN2-luciferase reporter [1]; [13]): 500 nM | Emax (SMN2-luciferase reporter [1]; [14]): 180% | Maximum % activation (SMN2-luciferase reporter [1]; Table 7): 156.6 ± 30.7% | EC50 (SMN2-luciferase reporter [1]; Table 7, read-out: EC50): 300 nM | Active (SMN2-luciferase reporter [1]; Table 6): Yes | Maximal solubility in PBS ([3]; PBS): >2000 µM | lifespan (SMA mice; [15]): extension of lifespan | weight of the treated animals (SMA mice; [16]): increased | Time to right (SMA mice; PND 6): Fail (Fail = >30 sec) | Time to right (SMA mice; PND 6, listed as 212014): dead | Time to right (SMA mice; PND 7): Fail (Fail = >30 sec) | Time to right (SMA mice; PND 7, listed as 212014): dead | Time to right (SMA mice; PND 8): Fail (Fail = >30 sec) | Time to right (SMA mice; PND 8, listed as 212014): dead | Time to right (SMA mice; PND 9): Fail (Fail = >30 sec) (2×) and dead and 26 seconds | Time to right (SMA mice; PND 10): Fail (Fail = >30 sec) | Time to right (SMA mice; PND 10, listed as 212014): dead | Time to right (SMA mice; PND 11): 5 seconds and dead and Fail (Fail = >30 sec) (2×) | Time to right (SMA mice; PND 12): 16 s | Time to right (SMA mice; PND 12, listed as 212014): dead | Time to right (SMA mice; PND 13): Fail (Fail = >30 sec) | Time to right (SMA mice; PND 13, listed as 212014): dead | Time to right (SMA mice; PND 14): 5 s | Time to right (SMA mice; PND 14, listed as 212014): dead | Time to right (SMA mice; PND 15): 14 s | Time to right (SMA mice; PND 15, listed as 212014): dead | Time to right (SMA mice; PND 16): Fail (Fail = >30 sec) | Time to right (SMA mice; PND 16, listed as 212014): dead | Time to right (SMA mice; PND 17): Fail (Fail = >30 sec) | Time to right (SMA mice; PND 17, listed as 212014): dead | Time to right (SMA mice; PND 18): dead | Time to right (SMA mice; PND 19): dead | Time to right (SMA mice; PND 20): dead | lifespan (SMA mice; SMA model mice, 20 mg/kg once daily IP in 100% DMSO, vs DMSO vehicle, p<0.0001): significantly increased lifespan | T1/2 in liver microsomes ([4]; Table 7): 39 min | Stabilityin liver microsomes [4]: 39 min | Stability [4]: 39 min | half-life ([4]; mouse, liver microsomes, t1/2 in mouse liver microsomes, mouse liver microsomes): 39 min
